Data set [1] has as its target Melanin-concentrating hormone receptor 1 (Homo sapiens, UniProt Q99705). Nature of the data set: Antagonist activity against human MCHR1 expressed in CHO cells by Gal4/Elk1-Luc reporter assay. In kind it is functional, cell-based.
Data set [2] is described as follows: Half life in rat at 3 mg/kg, iv. Type of data set: ADME, organism-based. Further details: dose 3 mg/kg, route intravenous. Particulars: in vivo.
Data set [3] can be described thus: Volume of distribution in rat at 3 mg/kg, iv and 10 mg/kg, po. The following applies: in vivo, read-out: Vss. Type of data set: ADME, organism-based.
The nature of data set [4]: Total clearance in rat at 3 mg/kg, iv and 10 mg/kg, po. Type of data set: ADME, organism-based. Particulars: in vivo.
A short description of data set [5]: Oral bioavailability in rat at 3 mg/kg, iv and 10 mg/kg, po. Type of data set: ADME, organism-based. The following applies: in vivo.
Data set [6] is described as follows: Ratio of drug concentration in brain to serum in DIO AKR/J mouse at 10 mg/kg, po.
The subject of data set [7] is Mus musculus. Kind of data set: Reduction in body weight of DIO AKR/J mouse relative to control at 3 mg/kg/day, po after 26 days. In kind it is functional. Further details: scale not given: the % may be the effect or the level left.
Data set [8] has as its system Mus musculus. Kind of data set: Concentration in DIO AKR/J mouse serum at 10 mg/kg, po. Type of data set: ADME, organism-based. Further details: dose 10 mg/kg, route oral. Particulars: in vivo.
The nature of data set [9]: Ratio of drug concentration in brain to serum in DIO AKR/J mouse at 3 mg/kg, po.
Data set [10] in a line: Ratio of drug concentration in brain to serum in DIO AKR/J mouse at 1 mg/kg, po.
Data set [11] concerns Mus musculus. Kind of data set: Reduction in body weight of DIO AKR/J mouse relative to control at 10 mg/kg/day, po after 26 days. Further details: scale not given: the % may be the effect or the level left. In kind it is functional.
Data set [12] relates to Mus musculus. Nature of the data set: Concentration in DIO AKR/J mouse serum at 3 mg/kg, po. In kind it is ADME, organism-based. Further details: dose 3 mg/kg, route oral. Particulars: in vivo.
For data set [13], the system named is Mus musculus. Nature of the data set: Concentration in DIO AKR/J mouse brain at 10 mg/kg, po. Particulars: in vivo. In kind it is ADME, organism-based. Further details: dose 10 mg/kg, route oral.
Data set [14] relates to Mus musculus. Nature of the data set: Concentration in DIO AKR/J mouse brain at 1 mg/kg, po. In kind it is ADME, organism-based. Further details: dose 1 mg/kg, route oral. Particulars: in vivo.
The subject of data set [15] is Mus musculus. Nature of the data set: Concentration in DIO AKR/J mouse serum at 1 mg/kg, po. Particulars: in vivo. In kind it is ADME, organism-based. Further details: dose 1 mg/kg, route oral.
The test system of data set [16] is Mus musculus. Nature of the data set: Concentration in DIO AKR/J mouse brain at 3 mg/kg, po. Type of data set: ADME, organism-based. Further details: dose 3 mg/kg, route oral. Particulars: in vivo.
The subject of data set [17] is Mus musculus. Nature of the data set: Reduction in body weight of DIO AKR/J mouse relative to control at 1 mg/kg/day, po after 26 days. In kind it is functional. Further details: scale not given: the % may be the effect or the level left.

Each structure is given as a SMILES string.

Chain of Melanin-concentrating hormone receptor 1 (Q99705 whole entry, the tested form may be a part): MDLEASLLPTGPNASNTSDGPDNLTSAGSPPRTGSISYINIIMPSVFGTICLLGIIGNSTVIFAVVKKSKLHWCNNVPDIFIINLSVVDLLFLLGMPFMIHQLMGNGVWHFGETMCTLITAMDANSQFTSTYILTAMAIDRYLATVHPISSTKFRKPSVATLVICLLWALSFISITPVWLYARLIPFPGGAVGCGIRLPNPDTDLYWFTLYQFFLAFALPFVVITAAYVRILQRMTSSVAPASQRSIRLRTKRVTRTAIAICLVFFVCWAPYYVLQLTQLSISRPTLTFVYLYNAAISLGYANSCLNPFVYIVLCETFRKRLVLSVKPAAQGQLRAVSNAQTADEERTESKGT

As to `O=c1c2sc(-c3ccc(Cl)cc3)cc2ncn1-c1ccc2ncccc2c1`, in data set [1], half-maximal inhibition (IC50) was put at 63 nM.

`CCC(C)c1ccc(-c2cc3ncn(-c4ccc5nc(CN6CCOCC6)ccc5c4)c(=O)c3s2)cc1` (configuration not stated): in [1], 200 nM corresponded to half-maximal inhibition (IC50).

In [2], `O=c1c2sc(-c3ccc(Cl)cc3)cc2ncn1-c1ccc2c(c1)OC[C@H](CN1CCCC1)O2` had a half-life of 6.1 h. In [1], this molecule displayed a 50% inhibitory concentration (IC50) of 24 nM. Further, the Vd in [3] came out at 22 L/kg. Besides, the clearance in [4] amounted to 66 mL/min/kg. In addition, the bioavailability in [5] was 65%.

For `O=c1c2sc(-c3ccc(Cl)cc3)cc2ncn1-c1ccc2c(c1)NCC(CN1CC[C@H](O)C1)O2` (some centres not stated), the 50% inhibitory concentration (IC50) in data set [1] was 5.3 nM.

With `CC(C)(C)c1ccc(-c2cc3ncn(-c4ccc5nc(CN6CCOCC6)ccc5c4)c(=O)c3s2)cc1`, in data set [1], half-maximal inhibition (IC50) required 501 nM.

Molecule `O=c1c2sc(-c3ccc(F)cc3)cc2ncn1-c1ccc2nc(CN3CCOCC3)ccc2c1` had an IC50 in data set [1] of 501 nM.

With `CCN1CCN(Cc2ccc3cc(-n4cnc5cc(-c6ccc(Cl)cc6)sc5c4=O)ccc3n2)CC1`, in data set [1], the IC50 was 6.2 nM.

In data set [2], `O=c1c2sc(-c3ccc(Cl)cc3)cc2ncn1-c1ccc2nc(CN3CCC(c4ccc(C(F)(F)F)cc4)CC3)ccc2c1` had a half-life of 8.5 h. The molecule also showed an IC50 in [1] of 6.1 nM. Moreover, in data set [3], the Vd was determined as 1.1 L/kg. The molecule further yielded a clearance in data set [4] of 3.7 mL/min/kg. The molecule further showed a bioavailability in [5] of 18%.

In turn, `O=c1c2sc(-c3ccc(Cl)cc3)cc2ncn1-c1ccc2nc(CO)ccc2c1` came in with an IC50 in data set [1] of 3.5 nM.

With `O=c1c2sc(-c3ccc(C(F)(F)F)cc3)cc2ncn1-c1ccc2nc(CN3CCOCC3)ccc2c1`, the IC50 in data set [1] amounted to 36 nM.

In data set [1], `O=c1c2sc(-c3ccc(Cl)cc3)cc2ncn1-c1ccc2nc(Cn3ccnc3)ccc2c1` came in with a half-maximal inhibitory concentration (IC50) of 2 nM.

`CN(C)CC1COc2cc(-n3cnc4cc(-c5ccc(Cl)cc5)sc4c3=O)ccc2O1` (configuration not stated) registered an IC50 in data set [1] of 7.7 nM.

Regarding `CN(C)Cc1ccc2cc(-n3cnc4cc(-c5ccc(Cl)cc5)sc4c3=O)ccc2n1`, half-maximal inhibition in [1] (IC50) required 0.74 nM.

For `O=c1c2sc(-c3ccc(Cl)cc3)cc2ncn1-c1ccc2nc(CN3CCCCC3)ccc2c1`, half-maximal inhibition in data set [1] (IC50) required 0.89 nM.

In data set [1], `O=c1c2sc(-c3ccc(Br)cc3)cc2ncn1-c1ccc2nc(CN3CCOCC3)ccc2c1` came in with an IC50 of 40 nM.

In turn, `O=c1c2sc(-c3ccc(Cl)cc3)cc2ncn1-c1ccc2nc(CN3CCC(N4CCCC4)CC3)ccc2c1` showed an IC50 in data set [1] of 5.6 nM.

`O=c1c2sc(-c3cccc(Cl)c3)cc2ncn1-c1ccc2nc(CN3CCOCC3)ccc2c1` came in with an IC50 in [1] of 3980 nM.

For the molecule `O=c1c2sc(-c3ccc(Cl)cc3)cc2ncn1-c1ccc2nc(CN3CCC(c4ccc(F)cc4)CC3)ccc2c1`, in data set [2], the half-life is 16 h. Also, half-maximal inhibition in data set [1] (IC50) required 3.1 nM. Besides, in data set [3], the Vd amounted to 2.3 L/kg. In addition, the clearance in data set [4] came to 2.9 mL/min/kg. The molecule also displayed a bioavailability in [5] of 30%.

`O=c1c2sc(-c3ccc(Cl)cc3)cc2ncn1-c1ccc2c(c1)NCC(CN1CCCC1)O2` (configuration not stated) gave an IC50 in data set [1] of 2.3 nM.

In the case of `CN(C)CC1CN(S(C)(=O)=O)c2cc(-n3cnc4cc(-c5ccc(Cl)cc5)sc4c3=O)ccc2O1` (configuration not stated), in [1], inhibition was half-maximal at 4170 nM (IC50).

For the molecule `O=c1c2sc(-c3ccc(Cl)cc3)cc2ncn1-c1ccc2c(c1)NCC(CN1CCOCC1)O2` (configuration not stated), in [1], the concentration for half-maximal inhibition (IC50) was found to be 8.5 nM.

In turn, `CN(C)C[C@H]1COc2cc(-n3cnc4cc(-c5ccc(Cl)cc5)sc4c3=O)ccc2O1` had an IC50 in data set [1] of 25 nM.

`CN1CCN(CC2CNc3cc(-n4cnc5cc(-c6ccc(Cl)cc6)sc5c4=O)ccc3O2)CC1` (configuration not stated) displayed an IC50 in data set [1] of 3.5 nM.

With `O=c1c2sc(-c3ccc(Cl)cc3)cc2ncn1-c1ccc2nc(CN3CCN(CCN4CCOCC4)CC3)ccc2c1`, in data set [1], the IC50 was determined as 19 nM.

On to `O=c1c2sc(-c3ccc(Cl)cc3)cc2ncn1-c1ccc2nc(CN3CCOCC3)ccc2c1`, for which the 50% inhibitory concentration (IC50) in [1] came to 4.9 nM.

For `O=c1c2sc(-c3ccc(Cl)cc3)cc2ncn1-c1ccc2nc(CN3CCC(c4ccccc4)CC3)ccc2c1`, the half-life in data set [2] was 8 h. Also, the concentration for half-maximal inhibition (IC50) in [1] was found to be 1.3 nM. The Vd in data set [3] came out at 4.3 L/kg. The molecule also returned a clearance in data set [4] of 11 mL/min/kg. Besides, the bioavailability in data set [5] came out at 19%.

`O=c1c2sc(-c3ccc(Cl)cc3)cc2ncn1-c1ccc2c(c1)OC[C@@H](CN1CCCC1)O2` gave an IC50 in [1] of 7 nM.

As for `O=c1c2sc(-c3ccc(Cl)cc3)cc2ncn1-c1ccc2c(c1)NCC(CN1CC[C@@H](O)C1)O2` (some centres not stated), the IC50 in [1] was 3.4 nM.

In data set [1], `N#Cc1ccc(-c2cc3ncn(-c4ccc5nc(CN6CCOCC6)ccc5c4)c(=O)c3s2)cc1` gave an IC50 of 478 nM.

For the molecule `O=c1c2sc(-c3ccccc3Cl)cc2ncn1-c1ccc2nc(CN3CCOCC3)ccc2c1`, the half-maximal inhibitory concentration (IC50) in data set [1] turned out to be 1260 nM.

With `O=c1c2sc(-c3ccc(Cl)cc3)cc2ncn1-c1ccc2nc(CN3CCN(CCCN4CCOCC4)CC3)ccc2c1`, in data set [1], half-maximal inhibition (IC50) was put at 37 nM.

`CN(C)C[C@@H]1COc2cc(-n3cnc4cc(-c5ccc(Cl)cc5)sc4c3=O)ccc2O1` had a half-inhibitory concentration (IC50) in [1] of 3.2 nM.

For `O=c1c2sc(-c3ccc(Cl)cc3)cc2ncn1-c1ccc2nc(CN3CCC(CCN4CCCC4)CC3)ccc2c1`, 1.5 nM corresponded to half-maximal inhibition in data set [1] (IC50).

In the case of `CN(Cc1ccc2cc(-n3cnc4cc(-c5ccc(Cl)cc5)sc4c3=O)ccc2n1)c1ccccc1`, in data set [1], the IC50 amounted to 87 nM.

On to `CN(C)CC1CN(S(=O)(=O)c2ccccc2)c2cc(-n3cnc4cc(-c5ccc(Cl)cc5)sc4c3=O)ccc2O1` (configuration not stated), for which the concentration for half-maximal inhibition (IC50) in data set [1] is 6920 nM.

`O=c1c2sc(-c3ccc(Cl)cc3)cc2ncn1-c1ccc2nc(CN3CCN(c4ccccc4)CC3)ccc2c1`: the midpoint of inhibition in data set [1], the IC50, lay at 3.8 nM.

For the molecule `O=c1c2sc(-c3ccccc3)cc2ncn1-c1ccc2nc(CN3CCOCC3)ccc2c1`, inhibition in data set [1] was half-maximal at 794 nM (IC50).

In turn, `COc1ccc(-c2cc3ncn(-c4ccc5nc(CN6CCOCC6)ccc5c4)c(=O)c3s2)cc1` yielded a 50% inhibitory concentration (IC50) in [1] of 31 nM.

`CN1CCN(Cc2ccc3cc(-n4cnc5cc(-c6ccc(Cl)cc6)sc5c4=O)ccc3n2)CC1`: the concentration ratio (Kp) in data set [6], in data set [9] and in [10] was 31 in each case. The Activity is reported as 9.4% in the data set with Mus musculus [7], 16.9% in the data set with Mus musculus [11] and 4.8% in the data set on Mus musculus [17]. Further, the Drug uptake with Mus musculus [8] was 414 ng/mL; with Mus musculus [12], 178 ng/mL; in the data set on Mus musculus [13], 13093 ng/g; with Mus musculus [14], 1421 ng/g; in the data set on Mus musculus [15], 44 ng/mL; with Mus musculus [16] it was 5508 ng/g. This molecule had a half-life in data set [2] of 7.7 h. Moreover, the IC50 in data set [1] came out at 3.1 nM. The Vd in [3] was 19 L/kg. For the same molecule, in data set [4], the clearance amounted to 39 mL/min/kg. This molecule registered a bioavailability in data set [5] of 98%.

For the molecule `CN(C)CC1CNc2cc(-n3cnc4cc(-c5ccc(Cl)cc5)sc4c3=O)ccc2O1` (configuration not stated), in data set [2], the half-life is 8 h. In data set [1], this molecule gave an IC50 of 3.2 nM. Moreover, in data set [3], the Vd is 27 L/kg. In [4], this molecule returned a clearance of 88 mL/min/kg. Also, in data set [5], the bioavailability is 75%.

Take `O=c1c2sc(-c3ccc(Cl)cc3)cc2ncn1-c1ccc2nc(CN3CCCC3)ccc2c1`: 1 nM corresponded to half-maximal inhibition in data set [1] (IC50).

These data come from ChEMBL document CHEMBL1137354, “Potent, selective, and orally efficacious antagonists of melanin-concentrating hormone receptor 1” (J Med Chem, 2006).
